Experimental findings from US20110105550A1 (SALIX PHARMACEUTICALS, LTD., priority 2008, published 2011) are described below.

Common to all, as to format: physicochemical
A short description of data set [1]: Milling experiments for amorphous materials. The note with it: 10 min. at 30 Hz, scraped sides, 10 min. at 30 Hz (dry milling). Here is the method: (§1) Vapor stressing experiments were done on amorphous material from two preparations: lyophilization from p-dioxane:water 1:1 and crash precipitation from ethyl acetate with heptane. […] The majority of the stressed samples appeared as clear red solutions after 6 days. Those solutions were placed in vials of antisolvent for vapor diffusion. Dry and wet milling experiments were conducted on amorphous materials from the two preparations mentioned above. Amorphous materials were recovered from the dry milling experiments.
A solid sample of rifaximin was charged to a milling container with a milling ball. Samples were milled for 5 or 15 minute intervals (2×5 minutes, 2×15 minutes, and 3×15 minutes) at 30 Hz using a Retsch MM200 mixer mill. Solids were scraped from the sides of the vial after each interval.

Data set [2] in a line: Stressing under various relative humidities (RH), solid form by XRPD. An excerpt: The jar was sealed and stored at either ambient temperature or in an oven at elevated temperature.
Data set [3] can be described thus: Automated moisture sorption/desorption (moisture balance). Particulars: for wt gain from 5 to 95% RH: sorption 5 to 95% RH; for Post-moisture sorption/desorption XRPD form: sorption from 5% RH to 95% RH, desorption from 95% RH to 5% RH. The procedure: Moisture sorption/desorption data were collected on a VTI SGA-100 Vapor Sorption Analyzer. Sorption and desorption data were collected over a range of 5% to 95% relative humidity (RH) at 10% RH intervals under a nitrogen purge. Samples were not dried prior to analysis. Equilibrium criteria used for analysis were less than 0.0100% weight change in 5 minutes, with a maximum equilibration time of 3 hours if the weight criterion was not met. Data were not corrected for the initial moisture content of the samples. NaCl and PVP were used as calibration standards.

The nature of data set [4]: Dynamic vapor sorption/desorption (DVS) of amorphous preparations. Here is the method: Based on the data, relative humidity stressing studies of the two amorphous materials at 40° C./75% RH are recommended.
Data set [5] can be described thus: Vapor stressing / vapor diffusion of amorphous rifaximin. The note with it: for Form obtained in vapor diffusion experiment: water as antisolvent. Here is the method:
as §1

Where [6] appears, read: first sample of Table 3 (by elimination: lyophilization in p-dioxane:water 1:1).
Setting [7] is: second sample of Table 3 (crash precipitation from ethyl acetate with heptane).

Regarding `CO[C@H]1/C=C/O[C@@]2(C)Oc3c(C)c(O)c4c(O)c(c5c(nc6cc(C)ccn65)c4c3C2=O)NC(=O)/C(C)=C\C=C\[C@H](C)[C@H](O)[C@@H](C)[C@@H](O)[C@@H](C)[C@H](OC(C)=O)[C@@H]1C` [crash amorphous rifaximin], in data set [1], the “XRPD Result after milling” value is on record as “amorphous”.

As to `CO[C@H]1/C=C/O[C@@]2(C)Oc3c(C)c(O)c4c(O)c(c5c(nc6cc(C)ccn65)c4c3C2=O)NC(=O)/C(C)=C\C=C\[C@H](C)[C@H](O)[C@@H](C)[C@@H](O)[C@@H](C)[C@H](OC(C)=O)[C@@H]1C` [amorphous], the “Final Form (XRPD)” value in data set [2] (43% RH, 5 days) is “amorphous”; in data set [2] (43% RH, 5 days, listed as Amorphous) it was “amorphous”; in data set [2] (43% RH, 5 days, listed as amorphous rifaximin), “remained amorphous”; in data set [2] (58% RH, 5 days), “amorphous”; in data set [2] (58% RH, 8 days), “remained amorphous”; in data set [2] (75% RH, 2 days, listed as amorphous rifaximin) it was “remained amorphous”. For the same molecule, the “Final Form (XRPD)” value in data set [2] (75% RH, 5 days) was “amorphous”. Besides, the “RH stability: solid form after exposure, 58% RH” value in data set [2] (58% RH, duration not printed in Table 1, am = amorphous) is on record as “am”. Further, the “RH stability: solid form after exposure, 75% RH” value in data set [2] (75% RH, duration not printed in Table 1, am = amorphous) is given as “am”. In data set [3] (desorption 95 to 5% RH, listed as Rifaximin Amorphous), the “wt loss from 95 to 5% RH” value is reported as 11.3% wt loss from 95 to 5% RH. Also, in data set [3] (equilibration at 5% RH, listed as Rifaximin Amorphous), the “wt loss upon equilibration at 5% RH” value is 0.7% wt loss upon equilibration at 5% RH. Also, in data set [3] (moisture balance), the Hygroscopicity entry is recorded as “hygroscopic”. Besides, the figures for the “wt gain from 5 to 95% RH” value in data set [3] (listed as Amorphous rifaximin) and in data set [3] (listed as Rifaximin Amorphous) were 11.6% and 11.6% wt gain from 5 to 95% RH, respectively. Also, the “Post-moisture sorption/desorption XRPD form” value in data set [3] (listed as Amorphous), in data set [3] (listed as Amorphous rifaximin) and in data set [3] (listed as Rifaximin Amorphous) was “amorphous” each time. For the same molecule, the “DVS weight gain from 5-95% RH” value in data set [4] (setting [6]) is reported as 8.364% eight gain from 5-95% RH; in data set [4] (setting [7]), 7.843% weight gain from 5-95% RH. Besides, the “DVS weight loss at 5% RH” value in data set [4] (setting [6]) came out at 0.100% weight loss at 5% RH; in data set [4] (second sample of Table 3 (DSC endo 79/204: crash precipitation from ethyl acetate with heptane)), 1.606% weight loss at 5% RH. The “DVS weight loss from 95-5% RH” value is recorded as 10.989% weight loss from 95-5% RH in data set [4] (setting [6]) and 9.172% weight loss from 95-5% RH in data set [4] (setting [7]). Moreover, the “XRPD Result after stressing” value in data set [5] (DCM, VD w/ IPE, 11 days) was “amorphous”; in data set [5] (MEK, VD w/ IPE, 11 days), “amorphous”; in data set [5] (toluene, VS, RT, 6 days, listed as Rifaximin, Amorphous), “amorphous”; in data set [5] (toluene, VS, RT, 6 days, listed as amorphous material), “no peaks by XRPD”; in data set [5] (water, VS, RT, 15 days), “amorphous”. The “Form obtained in vapor diffusion experiment” value in data set [5] (methanol) and in data set [5] (tetrahydrofuran) was “Form β” throughout.
